Results from ChEMBL document CHEMBL1201862, “PubChem BioAssay data set” (2004).
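Grown in 96-well plates, cells were treated for 48 hours with each compound at five concentrations. Insufficient inhibition: endpoint recorded as highest concentration tested. The concentration for 50% growth inhibition is given as GI50.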 Calls of active or inactive are those of the source. Rule as the data show it: active = GI50 up to about 1.1 µM and inactive = higher.

Key:
Experiment in all cases: inhibition of tumour cell growth, NCI panel, 48 h
A549 = system: A549
CAKI-1 = system: CAKI-1
DU-145 = system: DU-145
HCT-15 = system: HCT-15
KM12 = system: KM12
LOX IMVI = system: LOX IMVI
M14 = system: M14
MDA-MB-231 = system: MDA-MB-231
MDA-MB-435 = system: MDA-MB-435
Malme-3M = system: Malme-3M
NCI-H226 = system: NCI-H226
OVCAR-4 = system: OVCAR-4
OVCAR-8 = system: OVCAR-8
RPMI-8226 = system: RPMI-8226
SF-295 = system: SF-295
SK-MEL-5 = system: SK-MEL-5
SN12C = system: SN12C
SNB-19 = system: SNB-19
UO-31 = system: UO-31
HCC 2998 = system: HCC 2998

Structure (SMILES)	GI50 (A549)	GI50 (CAKI-1)	GI50 (DU-145)	GI50 (HCT-15) [µM]	GI50 (KM12)	GI50 (LOX IMVI)	GI50 (M14)	GI50 (MDA-MB-231)	GI50 (MDA-MB-435)	GI50 (Malme-3M)	GI50 (NCI-H226)	GI50 (OVCAR-4)	GI50 (OVCAR-8)	GI50 (RPMI-8226)	GI50 (SF-295)	GI50 (SK-MEL-5)	GI50 (SN12C)	GI50 (SNB-19)	GI50 (UO-31)	GI50 (HCC 2998)
CC(C)(C)OC(=O)CCC1NC(=O)[C@@H]2Cc3c([nH]c4ccccc34)C(C3CCCCC3)N2C1=O (stereo not given in full)	26.4 µM (inactive)	37.1 µM (inactive)	57.3 µM (inactive)	34.6	24.9 µM (inactive)	26.4 µM (inactive)	27.4 µM (inactive)	22 µM (inactive)	30.8 µM (inactive)	29.1 µM (inactive)	36.2 µM (inactive)	28.8 µM (inactive)	50.4 µM (inactive)	16.4 µM (inactive)	23.1 µM (inactive)	31 µM (inactive)	22.4 µM (inactive)	41.9 µM (inactive)	41.5 µM (inactive)	
COc1ccc2c(c1)C(N)=C(Cc1ccncc1)C2=O	> 100 µM (inactive)	> 100 µM (inactive)	> 100 µM (inactive)	> 100	> 100 µM (inactive)	> 100 µM (inactive)	> 100 µM (inactive)	> 100 µM (inactive)	> 100 µM (inactive)	> 100 µM (inactive)		98.4 µM (inactive)	> 100 µM (inactive)	> 100 µM (inactive)	> 100 µM (inactive)	> 100 µM (inactive)	63 µM (inactive)	> 100 µM (inactive)	46 µM (inactive)	
COC(=O)C(NC(=O)c1ccccc1)c1ccco1 (stereo not given)	> 100 µM (inactive)		> 100 µM (inactive)	> 100	> 100 µM (inactive)		> 100 µM (inactive)		> 100 µM (inactive)	> 100 µM (inactive)	> 100 µM (inactive)		> 100 µM (inactive)	> 100 µM (inactive)	> 100 µM (inactive)	> 100 µM (inactive)	> 100 µM (inactive)	> 100 µM (inactive)	> 100 µM (inactive)	> 100 µM (inactive)
COc1ccccc1-c1cc(=O)c2ccccc2n1C1CC1	2.84 µM (inactive)	3.49 µM (inactive)	3.5 µM (inactive)	2.55	2.37 µM (inactive)	3.89 µM (inactive)	4.4 µM (inactive)	3.76 µM (inactive)	3.42 µM (inactive)		2.42 µM (inactive)		3.79 µM (inactive)	1.71 µM (inactive)	2 µM (inactive)	4.52 µM (inactive)	5.08 µM (inactive)	4.86 µM (inactive)	3.85 µM (inactive)	
CCCC(CCC(=O)O)(CCC(=O)O)[N+](=O)[O-]	> 100 µM (inactive)	> 100 µM (inactive)	> 100 µM (inactive)	> 100	> 100 µM (inactive)		> 100 µM (inactive)	> 100 µM (inactive)	> 100 µM (inactive)	> 100 µM (inactive)	> 100 µM (inactive)		> 100 µM (inactive)	> 100 µM (inactive)	> 100 µM (inactive)	> 100 µM (inactive)	> 100 µM (inactive)	> 100 µM (inactive)	> 100 µM (inactive)	
Nc1ccc2nc3n(c(=O)c2c1)CCCCC3	> 100 µM (inactive)	> 100 µM (inactive)	> 100 µM (inactive)	> 100	> 100 µM (inactive)	> 100 µM (inactive)	> 100 µM (inactive)	> 100 µM (inactive)	> 100 µM (inactive)	> 100 µM (inactive)	> 100 µM (inactive)	> 100 µM (inactive)	> 100 µM (inactive)	> 100 µM (inactive)	> 100 µM (inactive)	> 100 µM (inactive)	> 100 µM (inactive)		> 100 µM (inactive)	
CC(=O)/C=C/c1cccc(N=S)c1	26.5 µM (inactive)	> 50.9 µM (inactive)		8.79	6.68 µM (inactive)	2.39 µM (inactive)	6.71 µM (inactive)			> 73.8 µM (inactive)	46 µM (inactive)	52.2 µM (inactive)	12.2 µM (inactive)	3.63 µM (inactive)	15.2 µM (inactive)	23.4 µM (inactive)	25.6 µM (inactive)	> 43.2 µM (inactive)	39.4 µM (inactive)	12.7 µM (inactive)
CSc1ccc(/C=C2\N=C(c3ccccc3)N(c3nc4cc(C)c(C)cc4s3)C2=O)cc1	30.1 µM (inactive)	53 µM (inactive)	49.7 µM (inactive)	40.7	27.4 µM (inactive)	19.8 µM (inactive)	26.4 µM (inactive)	24.6 µM (inactive)	12.9 µM (inactive)			26.5 µM (inactive)	20.3 µM (inactive)	52.1 µM (inactive)	34.1 µM (inactive)	21.4 µM (inactive)	27 µM (inactive)	30.2 µM (inactive)	28.9 µM (inactive)	32.1 µM (inactive)
CN(C=O)/C=C/c1cc(O)ccc1O	> 78 µM (inactive)	20.3 µM (inactive)	33.4 µM (inactive)	36.6	63.7 µM (inactive)	23.2 µM (inactive)	41.3 µM (inactive)			39.4 µM (inactive)	39.7 µM (inactive)	17.6 µM (inactive)	30.3 µM (inactive)	26.1 µM (inactive)	32.5 µM (inactive)	42 µM (inactive)	20.9 µM (inactive)	> 72.8 µM (inactive)	32 µM (inactive)	> 63 µM (inactive)
COc1cc(S(=O)(=O)Nc2ccc(-c3csc(N4C(=O)C(C)SC4c4ccccc4)n3)cc2)ccc1Cl (stereo not given)	> 100 µM (inactive)	> 100 µM (inactive)	40.2 µM (inactive)	> 100	0.082 µM (active)	10.1 µM (inactive)	> 100 µM (inactive)		24.6 µM (inactive)	80.4 µM (inactive)	0.0853 µM (active)	39.6 µM (inactive)	> 100 µM (inactive)	38.4 µM (inactive)		19.5 µM (inactive)	94.2 µM (inactive)	35.7 µM (inactive)	> 100 µM (inactive)	
Nc1ccccc1OCc1cc(=O)c(OCc2ccccc2)co1	71.1 µM (inactive)	8.65 µM (inactive)	47.8 µM (inactive)	24.2	6.47 µM (inactive)	27.7 µM (inactive)	17.7 µM (inactive)	19.9 µM (inactive)	15.8 µM (inactive)	34.6 µM (inactive)		62.1 µM (inactive)	> 100 µM (inactive)	15 µM (inactive)	10.1 µM (inactive)	18.8 µM (inactive)	0.214 µM (active)	> 100 µM (inactive)		
COC(=O)c1cccc2cccc(C(=O)Nc3ccc(C)cc3C)c12	> 100 µM (inactive)	> 100 µM (inactive)		> 100	> 100 µM (inactive)	> 100 µM (inactive)	> 100 µM (inactive)			> 100 µM (inactive)	> 100 µM (inactive)	93.8 µM (inactive)	> 100 µM (inactive)	22.5 µM (inactive)	> 100 µM (inactive)	> 100 µM (inactive)	> 100 µM (inactive)	> 100 µM (inactive)	> 100 µM (inactive)	> 100 µM (inactive)
N#C/C(=C/c1cccc2ccccc12)C(=O)c1ccccc1	> 10 µM (inactive)	23.9 µM (inactive)		19	20.9 µM (inactive)	19.5 µM (inactive)	16.9 µM (inactive)			21.5 µM (inactive)	17.7 µM (inactive)	> 100 µM (inactive)	33 µM (inactive)	22.3 µM (inactive)	20 µM (inactive)	> 10 µM (inactive)	33.2 µM (inactive)	19.9 µM (inactive)	18.4 µM (inactive)	23.6 µM (inactive)
C[N+]1(C)CCC(C#N)(c2ccccc2)CC1	> 100 µM (inactive)	> 100 µM (inactive)	> 100 µM (inactive)	> 100	> 100 µM (inactive)		> 100 µM (inactive)			> 100 µM (inactive)		> 100 µM (inactive)	> 100 µM (inactive)	> 100 µM (inactive)	> 100 µM (inactive)	> 100 µM (inactive)		> 100 µM (inactive)	> 100 µM (inactive)	> 100 µM (inactive)
C=C1C(=O)OC2/C=C(/C)C3CC(O)C(C)(CC(OC(=O)/C(C)=C/C)C12)O3 (stereo not given)	6.61 µM (inactive)	1.97 µM (inactive)		1.76	3.33 µM (inactive)	1.76 µM (inactive)	2.91 µM (inactive)			2.28 µM (inactive)	14.7 µM (inactive)	7.55 µM (inactive)	1.83 µM (inactive)	1.83 µM (inactive)	> 39.4 µM (inactive)	4.68 µM (inactive)	3.27 µM (inactive)	1.97 µM (inactive)	5.86 µM (inactive)	13.2 µM (inactive)
CNC1=Nc2ccc(Cl)cc2C(OP(=O)(N2CCOCC2)N2CCOCC2)=NC1	> 100 µM (inactive)	> 100 µM (inactive)		> 100	> 100 µM (inactive)	> 100 µM (inactive)	> 100 µM (inactive)			> 100 µM (inactive)	> 100 µM (inactive)	> 100 µM (inactive)	> 100 µM (inactive)	> 100 µM (inactive)	> 100 µM (inactive)	> 100 µM (inactive)	> 100 µM (inactive)	> 100 µM (inactive)	> 100 µM (inactive)	> 100 µM (inactive)
